This note sets out measurements from patent US10507228B2, “Methods and compositions related to KRAS inhibitors” (priority 2015, dated 2019).

Positions of bridges follow the written chain, without caps; N, C: chain ends. Non-standard residues stand in square brackets, D forms with d. Residues, ends and D or L forms follow the SMILES beside them. ξ: configuration not given here. ξK = NCCCCC(N)C(=O)O; ξA = CC(N)C(=O)O

The test has as its target T1, mt G12D KRas binding to GST-RBD (Raf Ras binding domain) (Homo sapiens, UniProt P01116, G12D).
T1 construct: expressed in transfected cells; host or cells: NIH-3T3 cells (lysate)
The experiment in a line: GST-RBD pulldown assay. To be noted: lysates of NIH-3T3 cells that ectopically express G12D KRas; compared to DMSO control; FIG. 1B. Here is the method: Several stapled peptides such as FY-A-100-1 and 2 have been made (see FIG. 1A) that were designed based on the helical domain (78-92, LHDCLMKALKVRGLQ) (SEQ ID NO. 1) of Raf RBD (Ras binding domain). The synthesis was conducted on solid phase. In GST-RBD pulldown assays, FY-A-100-1 was potent at inhibiting the ability of GST-RBD to bind mt G12D KRas from lysates of NIH-3T3 cells that ectopically express G12D KRas (FIG. 1B). […] Furthermore, FY-A-90-1A, which is identical to FY-A-100-1 except for having a “CH2” shorter side chain of residue 82 that forms the staple, was not active.
For the compound `CSCC[C@@H]1NC(=O)[C@@H](NC(=O)[C@H](CS)NC(=O)[C@H](CC(=O)O)NC(=O)[C@H](Cc2cnc[nH]2)NC(=O)[C@@H](N)CC(C)C)CCC(=O)NCCCC[C@@H](C(=O)N[C@@H](CCCCN)C(=O)N[C@H](C(=O)N[C@@H](CCCNC(=N)N)C(=O)NCC(=O)N[C@@H](CC(C)C)C(=O)N[C@@H](CCC(N)=O)C(N)=O)C(C)C)NC(=O)C(C)NC(=O)[C@H](CCCCN)NC1=O` (stereo partly drawn) [FY-A-100-2] (H-LHDCEMK[ξA]KKVRGLQ-NH2; lactam 5-9), the “inhibiting the ability of GST-RBD to bind mt G12D KRas” value is listed as “less potent”.
As to `CSCC[C@@H]1NC(=O)[C@@H](NC(=O)[C@H](CS)NC(=O)[C@H](CC(=O)O)NC(=O)[C@H](Cc2cnc[nH]2)NC(=O)[C@@H](N)CC(C)C)CC(=O)NCCCC[C@@H](C(=O)NC(CCCCN)C(=O)N[C@H](C(=O)N[C@@H](CCCNC(=N)N)C(=O)NCC(=O)N[C@@H](CC(C)C)C(=O)N[C@@H](CCC(N)=O)C(N)=O)C(C)C)NC(=O)C(C)NC(=O)[C@H](CCCCN)NC1=O` (stereo partly drawn) [FY-A-90-2A] (H-LHDCDMK[ξA]K[ξK]VRGLQ-NH2; lactam 5-9), the “inhibiting the ability of GST-RBD to bind mt G12D KRas” value is “little activity”.
Then `CSCC[C@H](NC(=O)[C@H](CC(=O)O)NC(=O)[C@H](CS)NC(=O)[C@H](CC(=O)O)NC(=O)[C@H](Cc1cnc[nH]1)NC(=O)[C@@H](N)CC(C)C)C(=O)N[C@@H](CCCCN)C(=O)NC(C)C(=O)N[C@@H](CCCCN)C(=O)NC(CCCCN)C(=O)N[C@H](C(=O)N[C@@H](CCCNC(=N)N)C(=O)NCC(=O)N[C@@H](CC(C)C)C(=O)N[C@@H](CCC(N)=O)C(N)=O)C(C)C` (stereo partly drawn) [FY-A-90-2B] (H-LHDCDMK[ξA]K[ξK]VRGLQ-NH2), with “little activity”; and `CSCC[C@H](NC(=O)[C@H](CC(=O)O)NC(=O)[C@H](CS)NC(=O)[C@H](CC(=O)O)NC(=O)[C@H](Cc1cnc[nH]1)NC(=O)[C@@H](N)CC(C)C)C(=O)N[C@@H](CCCCN)C(=O)NC(CCCCN)C(=O)N[C@@H](CCCCN)C(=O)NC(CCCCN)C(=O)N[C@H](C(=O)N[C@@H](CCCNC(=N)N)C(=O)NCC(=O)N[C@@H](CC(C)C)C(=O)N[C@@H](CCC(N)=O)C(N)=O)C(C)C` (stereo partly drawn) [FY-A-90-1B] (H-LHDCDMK[ξK]K[ξK]VRGLQ-NH2), with “little activity”; and `CSCC[C@@H]1NC(=O)[C@@H](NC(=O)[C@H](CS)NC(=O)[C@H](CC(=O)O)NC(=O)[C@H](Cc2cnc[nH]2)NC(=O)[C@@H](N)CC(C)C)CC(=O)NCCCC[C@@H](C(=O)NC(CCCCN)C(=O)N[C@H](C(=O)N[C@@H](CCCNC(=N)N)C(=O)NCC(=O)N[C@@H](CC(C)C)C(=O)N[C@@H](CCC(N)=O)C(N)=O)C(C)C)NC(=O)C(CCCCN)NC(=O)[C@H](CCCCN)NC1=O` (stereo partly drawn) [FY-A-90-1A] (H-LHDCDMK[ξK]K[ξK]VRGLQ-NH2; lactam 5-9), with “not active”.
For `CSCC[C@@H]1NC(=O)[C@@H](NC(=O)[C@H](CS)NC(=O)[C@H](CC(=O)O)NC(=O)[C@H](Cc2cnc[nH]2)NC(=O)[C@@H](N)CC(C)C)CCC(=O)NCCCC[C@@H](C(=O)N[C@@H](CCCCN)C(=O)N[C@H](C(=O)N[C@@H](CCCNC(=N)N)C(=O)NCC(=O)N[C@@H](CC(C)C)C(=O)N[C@@H](CCC(N)=O)C(N)=O)C(C)C)NC(=O)[C@H](CCCCN)NC(=O)[C@H](CCCCN)NC1=O` [FY-A-100-1] (H-LHDCEMKKKKVRGLQ-NH2; lactam 5-9) the value was “potent”.
